Experimental findings from patent US10738080B2, “Inhibitors of beta integrin-G protein alpha subunit binding interactions” (priority 2010, dated 2020) are described below.

The test deals with c-Src. The settings on record: human platelets adherent to fibrinogen. The protocol:
(FIG. 3A) Washed human platelets pre-treated with DMSO, mSRI, or scrambled control peptide were allowed to adhere to fibrinogen and then solubilized at indicated time points. Proteins from lysates were immunoblotted with antibodies to c-Src phosphorylated at Tyr^416, c-Src, or RhoA. GTP-bound RhoA was measured by association with GST-RBD beads (25). See FIG. S4 for quantitative data. (FIG. 3B) Spreading of platelets treated with 0.1% DMSO, scrambled control peptide, or mSRI, in the absence or presence of C3 toxin, Y27632, or 0.01 U/ml thrombin. Platelets were stained with Alexa Fluor 546-conjugated phalloidin.
(FIG. 13A) Platelets were treated with 500 μM control peptide, mP13, mP7, or mP5 peptides, then immunoprecipitated with anti-Gα13 antibody or equal amount of control rabbit IgG. Lysates and immunoprecipitates were immunoblotted with anti-Gα13 or anti-β3 (MAb15) antibody. (FIG. 13B) Human platelets treated with DMSO, Myr-Scrambled peptide or mP5 peptide were allowed to adhere to immobilized fibrinogen, solubilized and analyzed for RhoA activation and c-Src Tyr^416 phosphorylation. (FIG. 13C) Confocal microscopy images of platelets treated with DMSO, Myristoylated Scrambled peptides, and mP5 peptide treated platelets adherent on fibrinogen for 30 minutes, without or with Rho kinase inhibitor Y27632. Merged […] (green) fluorescence and Alexa Fluor 546-conjugated phalloidin (red) fluorescence. (FIG. 13D) Flow cytometry analysis of PAR4AP (50 μM)-induced Oregon-green labelled fibrinogen binding to human platelets pre-treated with DMSO, 250 μM Myr-Scrambled peptide or 250 μM mP5 peptide. (FIG. 13E) Platelets were preincubated with mP5 or scrambled control peptides and then stimulated with thrombin in a platelet aggregometer at 37° C. Platelet aggregation traces were recorded.
Western blot bands were scanned, and analyzed for uncalibrated optical density using NIH Image J software. Student t-test was used to determine statistical significance.

Where two headings read alike, the source gives them in different places. No end group written: not given here. *: point of attachment. Myristoyl = CCCCCCCCCCCCCC(=O)*

On to Myr-EEERA [mP5], for which the “integrin-dependent phosphorylation of c-Src Tyr416 (c-Src activation)” value (“integrin-dependent phosphorylation” for short) is reported as “inhibited”. For the same substance, where the note is “listed as Myr-P5”, the “integrin-dependent phosphorylation” value is “decreased”.
With Myristoyl-KFEEERA [mP7], the “integrin-dependent phosphorylation” value is listed as “inhibited”.
For the substance Myristoyl-KFEEERARAKWDT [mP13], the “integrin-dependent phosphorylation” value was “inhibited”.
Same read-out and setting: for Myristoyl-LLARRPTKGIHEY [mSRI] the value was “inhibited”.
